Here are results for two molecules from patent US8454934B2, “High molecular weight chelation structure” (Canadian Blood Services, priority 2006, dated 2013).

One data set has as its system mice. To be noted: cited from earlier work.
For data set [1] the following is noted: upon intravascular administration; cellular uptake and kidney clearance; cited from earlier work.
Data set [2] in a line: Solubility in water and plasma, by absorbance versus wavelength (FIG. 20A). The class given is physicochemical. The following applies: absorbance plots FIG. 20A, HMW-ICL-670 was 20% (by weight) ICL-670. As to the method:
FIGS. 20A and 20B are plots of absorbance of radiation in water versus wavelength of the radiation, for low molecular weight ICL670 (3 mg/ml) and the chelation structure of the present invention (denoted as HMW) dissolved in the water, in accordance with embodiments of the present invention. […] The measured absorbance increases with increasing concentration of the chelators/chelation structures dissolved in the water and is thus a measure of the solubility of the chelators/chelation structures in the water.

Usually LD50 stands for the dose expected to kill half of the subjects tested. For `CC(=O)N(O)CCCCCNC(=O)CCC(=O)N(O)CCCCCNC(=O)CCC(=O)N(O)CCCCCN.CS(=O)(=O)O` [DFO, N-[5-(3-[(5-aminopentyl)-hydroxycarbamoyl]-propionamido)pentyl]-3-([5-(N-hydroxyacetamido)-pentyl]-carbamoyl)-propionohydroxamic acid monomethane sulphonate], the LD50 with mice is reported as roughly 250 mg/kg. Further, the “time to complete clearance from the vasculature” value in data set [1] is reported as “approximately 20 minutes”.
As for `O=C(O)c1ccc(-n2nc(-c3ccccc3O)nc2-c2ccccc2O)cc1` [ICL670, 4-[3,5-bis(2-hydroxyphenyl)-1,2,4-triazol-1-yl]-benzoic acid], the solubility in water entry in data set [2] is “insoluble in water”.
